Experimental findings from PubChem BioAssay (NCI) are described below.

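The compound was tested at five concentrations on cells cultured in 96-well plates, with a 48-hour exposure period. TGI is the concentration that stops growth completely.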

What all share (experiment): growth of human tumour cells (NCI), 48 h
The subject of assay [1] is A549 NSCLC.
Assay [2] relates to COLO 205 colon.
The test system of assay [3] is DU-145 prostate.
Assay [4] relates to EKVX NSCLC.
For assay [5], the system named is HCT-15 colon.
Assay [6] relates to HOP-92 NSCLC.
Assay [7] concerns IGROV1 ovarian.
In assay [8] the test system is M14 melanoma.
In assay [9] the test system is MALME-3M melanoma.
Assay [10] relates to MDA-MB-435.
In assay [11] the test system is NCI-H460 lung.
Assay [12] deals with OVCAR-5 ovarian.
The subject of assay [13] is RXF 393 renal.
For assay [14], the system named is SF-295 CNS.
The test system of assay [15] is SK-MEL-28 melanoma.
Assay [16] concerns SNB-75 CNS.
The test system of assay [17] is SW-620 colon.
Assay [18] deals with U251 CNS.
The subject of assay [19] is UACC-257 melanoma.

`C[N+](CCCl)(CCCl)Cc1cccc2cccc([N+](=O)[O-])c12`: the TGI in assay [1], in assay [2], in [3], in assay [4], in assay [5] and in assay [6] was more than 100 µM in each case. Besides, the TGI in assay [7], in assay [8], in assay [9], in assay [10], in assay [11] and in assay [12] was more than 100 µM throughout. For the same compound, the TGI in [13], in [14], in assay [15], in assay [16], in assay [17] and in assay [18] was more than 100 µM each time. In addition, the TGI in assay [19] was more than 100 µM.
With `OC1(C(F)(F)F)OCCN=C1C(F)(F)F` (centres undefined), the TGI in assay [1], in assay [2], in assay [3], in [4], in [5] and in assay [6] was more than 100 µM each time. In addition, the TGI in [7] was more than 100 µM; in assay [8], more than 100 µM; in [9], 76.4 µM; in assay [10], more than 100 µM; in [11], more than 100 µM; in assay [12] it was more than 100 µM. Besides, the TGI in assay [13], in [14], in assay [15], in [16], in [17] and in assay [18] was more than 100 µM in each case. In assay [19], this compound registered a TGI of more than 100 µM.
As for `O=C(O)CC1NC(/C(=C/c2ccccc2)NC(=O)c2ccccc2)OC1=O` (centres undefined), the TGI was more than 100 µM in [1]; 40.6 µM in assay [2]; more than 100 µM in assay [3]; more than 100 µM in assay [4]; more than 100 µM in [5]; more than 100 µM in assay [6]. The TGI in assay [7] is more than 100 µM; in assay [8], 35.2 µM; in [9], more than 100 µM; in [10], 67 µM; in [11], 69.6 µM; in assay [12], more than 100 µM. The TGI was more than 100 µM in assay [13]; more than 100 µM in assay [14]; 52.4 µM in assay [15]; 74 µM in assay [16]; 42 µM in assay [17]; 34.5 µM in assay [18]. In [19], this compound gave a TGI of more than 100 µM.
As for `C=C1C(=O)C[C@H]2C(=C)C(=O)O[C@@H]2C2C1CC[C@@]2(C)O` (some centres undefined), the TGI in assay [1] is more than 100 µM; in [2] it was 54.8 µM; in assay [3], more than 100 µM; in assay [4] it was more than 100 µM; in assay [5] it was 69.2 µM; in [6] it was more than 100 µM. Also, the TGI is more than 100 µM in assay [7]; 33.5 µM in assay [8]; 44.9 µM in assay [9]; more than 100 µM in assay [10]; 43.1 µM in assay [11]; more than 100 µM in assay [12]. The TGI in [13] was 43.9 µM; in assay [14] it was more than 100 µM; in [15] it was 85.5 µM; in assay [16] it was more than 100 µM; in [17], more than 100 µM; in [18] it was more than 100 µM. Moreover, the TGI in assay [19] was found to be 56.1 µM.
As to `O=C(NCC(=O)N1CCCC1C(=O)OC(=O)C1CCCN1C(=O)CNC(=O)OCc1ccccc1)OCc1ccccc1` (centres undefined), the TGI in assay [1] was more than 100 µM; in [2], 33.9 µM; in assay [3], more than 100 µM; in [4], more than 100 µM; in assay [5] it was more than 100 µM; in assay [6], more than 100 µM. For the same compound, the TGI in assay [7] is more than 100 µM; in [8], 45.7 µM; in assay [9] it was 64.8 µM; in assay [10] it was 68.3 µM; in assay [11], more than 100 µM; in [12], 90.1 µM. For the same compound, the TGI in [13] was 64.5 µM; in assay [14], 47.8 µM; in [15], 70.4 µM; in assay [16] it was 57.2 µM; in assay [17], more than 100 µM; in assay [18], more than 100 µM. The compound further displayed a TGI in assay [19] of 52.1 µM.
With `CC1(c2cccs2)CC(c2cccs2)=C(C#N)C(=C(C#N)C#N)N1` (centres undefined), the TGI in [1] is 48.6 µM; in [2], 39.9 µM; in assay [3], 28.9 µM; in [4], 33.6 µM; in assay [5] it was 33.8 µM; in [6], 30.8 µM. For the same compound, the TGI in [7] turned out to be 33.4 µM; in assay [8], 40.5 µM; in assay [9], 35 µM; in [10] it was 31.8 µM; in assay [11] it was 43.9 µM; in assay [12], 39.3 µM. The TGI in assay [13] was 38.7 µM; in assay [14] it was 32.6 µM; in assay [15], 50.2 µM; in assay [16], 33.2 µM; in assay [17], 43.7 µM; in [18] it was 31 µM. Besides, the TGI in assay [19] came to 32.7 µM.
